Results published in article PMC4468002 (Bioorganic & medicinal chemistry, 2015).

How the values were obtained:
human D3R = human D3R (Homo sapiens, UniProt P35462); assay: Radioligand competition binding, [3H]N-methylspiperone, D3R; settings: ratio of Ki values; Table 2
[1] = Phase I metabolic stability in mouse liver microsomes with NADPH; assay type: in vitro ADME; settings: 60 min incubation, 1 μM compound

Sequence of human D3R (P35462 whole entry): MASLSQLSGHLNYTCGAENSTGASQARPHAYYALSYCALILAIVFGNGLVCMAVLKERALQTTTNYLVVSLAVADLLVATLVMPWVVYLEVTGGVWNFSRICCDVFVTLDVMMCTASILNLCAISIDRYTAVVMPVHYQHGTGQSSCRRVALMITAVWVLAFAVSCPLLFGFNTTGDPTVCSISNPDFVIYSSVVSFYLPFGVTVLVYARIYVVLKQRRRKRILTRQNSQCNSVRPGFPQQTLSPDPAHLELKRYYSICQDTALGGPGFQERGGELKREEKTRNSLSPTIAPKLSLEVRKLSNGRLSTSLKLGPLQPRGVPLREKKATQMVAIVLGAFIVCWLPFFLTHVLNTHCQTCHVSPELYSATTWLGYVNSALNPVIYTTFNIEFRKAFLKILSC

Row | Receptor selectivity D2/D3 (human D3R) | Receptor selectivity D4/D3 (human D3R) | percent original compound remaining [1] [%] | Substance
1 | 6.3 | 40 | – | 5-(4-(4-(4-(2-Methoxyphenyl)piperazin-1-yl)butyl)-1H-1,2,3-triazol-1-yl)quinoline [9d]
2 | 14 | – | 26 | 1-(4-(2,3-Dichlorophenyl)piperazin-1-yl)-4-(4-(quinolin-3-yl)-1H-1,2,3-triazol-1-yl)butan-2-ol [17b]
